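The compound was tested at five concentrations on cells cultured in 96-well plates, with a 48-hour exposure period. GI50 = concentration required for 50% inhibition of growth. At the TGI there is no net growth.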
Columns and labels:
Assay in all cases: NCI tumour cell line growth inhibition, 48 h
[1] = test system: EKVX NSCLC
[2] = test system: NCI/ADR-RES ovarian
[3] = test system: HT29 colon
[4] = test system: A549 NSCLC
[5] = test system: OVCAR-3 ovarian
[6] = test system: SNB-19 CNS
[7] = test system: TK-10 renal
[8] = test system: A498 renal
[9] = test system: RXF 393 renal
[10] = test system: SF-539 CNS
[11] = test system: UO-31 renal
[12] = test system: COLO 205 colon
[13] = test system: SF-268 CNS
[14] = test system: HOP-62 NSCLC
[15] = test system: MCF7 breast
[16] = test system: U251 CNS
[17] = test system: SK-MEL-28 melanoma
[18] = test system: CCRF-CEM leukemia
[19] = test system: CAKI-1 renal
[20] = test system: SF-295 CNS
[21] = test system: DU-145 prostate
[22] = test system: K-562 leukemia
[23] = test system: HS 578T breast
[24] = test system: OVCAR-5 ovarian
[25] = test system: NCI-H460 lung
[26] = test system: SK-MEL-2 melanoma
[27] = test system: LOX IMVI melanoma
[28] = test system: MDA-MB-231 breast
[29] = test system: KM12 colon
[30] = test system: MDA-N
[31] = test system: OVCAR-8 ovarian
[32] = test system: UACC-257 melanoma
[33] = test system: T-47D breast
[34] = test system: M14 melanoma
[35] = test system: OVCAR-4 ovarian
[36] = test system: UACC-62 melanoma
[37] = test system: NCI-H522 lung
[38] = test system: HCC-2998 colon
[39] = test system: SK-OV-3 ovarian
[40] = test system: RPMI-8226 leukemia
[41] = test system: HCT-15 colon
[42] = test system: SNB-75 CNS
[43] = test system: HCT-116 colon
[44] = test system: SK-MEL-5 melanoma
[45] = test system: 786-0 renal
[46] = test system: PC-3 prostate
[47] = test system: ACHN renal
[48] = test system: MALME-3M melanoma
[49] = test system: BT-549 breast
[50] = test system: NCI-H23 lung
[51] = test system: SW-620 colon
[52] = test system: MDA-MB-435
[53] = test system: HOP-92 NSCLC
[54] = test system: MOLT-4 leukemia
[55] = test system: SR leukemia
[56] = test system: NCI-H226 lung
[57] = test system: HL-60(TB) leukemia
[58] = test system: SN12C renal
[59] = test system: IGROV1 ovarian

## COc1cc2c[n+](C)c3c4cc(OC)c(OC)cc4c(OC)cc3c2cc1OC
[1]
  TGI: > 100 µM
[2]
  TGI: > 100 µM
[3]
  TGI: > 46.7 µM
[4]
  TGI: > 100 µM
[5]
  TGI: > 34.6 µM
[6]
  TGI: > 100 µM
[7]
  TGI: > 100 µM
[8]
  TGI: > 100 µM
[9]
  TGI: > 100 µM
[10]
  TGI: > 100 µM
[11]
  TGI: > 100 µM
[12]
  TGI: 4.41 µM
[13]
  TGI: 18.7 µM
[14]
  TGI: > 100 µM
[15]
  TGI: > 100 µM
[16]
  TGI: > 51.8 µM
[17]
  TGI: > 81.9 µM
[18]
  TGI: > 100 µM
[19]
  TGI: > 100 µM
[20]
  TGI: > 100 µM
[21]
  TGI: > 65.3 µM
[22]
  TGI: > 41.5 µM
[23]
  TGI: 12.6 µM
[24]
  TGI: > 100 µM
[25]
  TGI: > 100 µM
[26]
  TGI: > 86 µM
[27]
  TGI: > 76.5 µM
[28]
  TGI: 19.8 µM
[29]
  TGI: > 67.1 µM
[30]
  TGI: > 45.9 µM
[31]
  TGI: 23 µM
[32]
  TGI: 18.3 µM
[33]
  TGI: 12.2 µM
[34]
  TGI: > 100 µM
[35]
  TGI: > 69.5 µM
[36]
  TGI: > 100 µM
[37]
  TGI: 2.03 µM
[38]
  TGI: > 52.1 µM
[39]
  TGI: > 100 µM
[40]
  TGI: > 100 µM
[41]
  TGI: > 100 µM
[42]
  TGI: > 95.1 µM
[43]
  TGI: > 43.6 µM
[44]
  TGI: 14.9 µM
[45]
  TGI: > 74.6 µM
[46]
  TGI: 98.9 µM
[47]
  TGI: > 100 µM
[48]
  TGI: 9.44 µM
[49]
  TGI: 57 µM
[50]
  TGI: 36.8 µM
[51]
  TGI: > 100 µM
[52]
  TGI: > 60.4 µM

## CC1(C#N)N(C(=O)c2ccccc2)c2ccccc2N1C(=O)c1ccccc1
[2]
  GI50: 79.7 µM
[3]
  GI50: 66.4 µM
[53]
  GI50: 52 µM
[54]
  GI50: 22.9 µM
  TGI: 71.9 µM
[11]
  GI50: 45.1 µM
[12]
  GI50: 46.5 µM
[15]
  GI50: 37.2 µM
[16]
  GI50: 15.3 µM
[18]
  GI50: 23.9 µM
  TGI: 77.9 µM
[19]
  GI50: 65 µM
[21]
  GI50: 81.8 µM
[22]
  GI50: 33 µM
[55]
  GI50: 45.4 µM
[56]
  GI50: 91.8 µM
[27]
  GI50: 33.6 µM
[28]
  GI50: 65.3 µM
[30]
  GI50: 79.4 µM
[32]
  GI50: 86.4 µM
[33]
  GI50: 38.7 µM
[34]
  GI50: 29.3 µM
  TGI: 98.4 µM
[35]
  GI50: 57.7 µM
[36]
  GI50: 79.7 µM
[57]
  GI50: 69.9 µM
[37]
  GI50: 49.4 µM
[40]
  GI50: 39.8 µM
[43]
  GI50: 35.4 µM
[47]
  GI50: 72.9 µM
[48]
  GI50: 44.6 µM
[50]
  GI50: 64.4 µM
[51]
  GI50: 75.9 µM
[52]
  GI50: 62.9 µM

## N#CN=C(N)c1sc2nc3c(c(-c4ccc(Br)cc4)c2c1N)CCCC3
[2]
  TGI: 80.1 µM
[3]
  TGI: 48.8 µM
[53]
  TGI: 77.5 µM
[4]
  TGI: > 100 µM
[6]
  TGI: > 100 µM
[7]
  TGI: > 100 µM
[54]
  TGI: > 100 µM
[8]
  TGI: 43.1 µM
[9]
  TGI: 60 µM
[10]
  TGI: > 100 µM
[11]
  TGI: 57.6 µM
[12]
  TGI: 44.8 µM
[13]
  TGI: > 100 µM
[15]
  TGI: > 100 µM
[16]
  TGI: > 100 µM
[17]
  TGI: > 100 µM
[18]
  TGI: > 100 µM
[19]
  TGI: 42.4 µM
[20]
  TGI: 58.6 µM
[21]
  TGI: 71.9 µM
[22]
  TGI: > 100 µM
[24]
  TGI: > 100 µM
[55]
  TGI: 50.3 µM
[56]
  TGI: 42 µM
[25]
  TGI: > 100 µM
[26]
  TGI: 32.8 µM
[27]
  TGI: 41.2 µM
[28]
  TGI: 70.8 µM
[58]
  TGI: 58.1 µM
[29]
  TGI: 59.7 µM
[30]
  TGI: 34.4 µM
[31]
  TGI: 86.8 µM
[32]
  TGI: > 100 µM
[34]
  TGI: > 100 µM
[35]
  TGI: 26.9 µM
[36]
  TGI: 51.3 µM
[38]
  TGI: 60.3 µM
[39]
  TGI: > 100 µM
[40]
  TGI: 56.5 µM
[41]
  TGI: 44.7 µM
[43]
  TGI: 33.1 µM
[44]
  TGI: 38.3 µM
[45]
  TGI: 50.2 µM
[46]
  TGI: 52.7 µM
[47]
  TGI: 57 µM
[50]
  TGI: 66.9 µM
[51]
  TGI: > 100 µM
[52]
  TGI: 13.6 µM

## O=C1/C(=C/c2ccccc2)CCCC1CN1CCCCC1 (configuration not stated)
[1]
  TGI: 28.8 µM
[2]
  TGI: 13 µM
[3]
  TGI: 2.98 µM
[53]
  TGI: 6.05 µM
[4]
  TGI: 34.9 µM
[5]
  TGI: 3.24 µM
[6]
  TGI: 29.1 µM
[7]
  TGI: 8.02 µM
[54]
  TGI: > 100 µM
[8]
  TGI: 30.4 µM
[9]
  TGI: 3.76 µM
[10]
  TGI: 11.7 µM
[11]
  TGI: 3.82 µM
[12]
  TGI: 10.4 µM
[13]
  TGI: 3.59 µM
[14]
  TGI: 35.5 µM
[15]
  TGI: 1.69 µM
[16]
  TGI: 27 µM
[17]
  TGI: 3.77 µM
[19]
  TGI: 3.2 µM
[59]
  TGI: 8.38 µM
[20]
  TGI: 33.6 µM
[21]
  TGI: 27.3 µM
[23]
  TGI: 16.9 µM
[24]
  TGI: 33.8 µM
[56]
  TGI: 9.87 µM
[25]
  TGI: 32.4 µM
[26]
  TGI: 15.8 µM
[27]
  TGI: 3.3 µM
[28]
  TGI: 3.89 µM
[58]
  TGI: 18.5 µM
[29]
  TGI: 2.78 µM
[30]
  TGI: 4.13 µM
[31]
  TGI: 4.13 µM
[32]
  TGI: 22 µM
[33]
  TGI: 3.92 µM
[34]
  TGI: 3.36 µM
[35]
  TGI: 3.83 µM
[36]
  TGI: 19.7 µM
[37]
  TGI: 2.05 µM
[38]
  TGI: 29 µM
[39]
  TGI: 31 µM
[40]
  TGI: > 100 µM
[41]
  TGI: 4.85 µM
[42]
  TGI: 20.5 µM
[43]
  TGI: 3.15 µM
[44]
  TGI: 15.6 µM
[45]
  TGI: 4.26 µM
[46]
  TGI: 24.1 µM
[47]
  TGI: 11.8 µM
[48]
  TGI: 3.97 µM
[49]
  TGI: 8.91 µM
[50]
  TGI: 16.7 µM
[51]
  TGI: 2.64 µM
[52]
  TGI: 4.26 µM

## CCOc1ccc2nc(-c3ccc(O)cc3)sc2c1
[1]
  TGI: 55.2 µM
[2]
  TGI: > 100 µM
[3]
  TGI: > 100 µM
[4]
  TGI: > 100 µM
[5]
  TGI: > 100 µM
[6]
  TGI: > 100 µM
[7]
  TGI: > 100 µM
[54]
  TGI: > 100 µM
[8]
  TGI: > 100 µM
[9]
  TGI: > 100 µM
[10]
  TGI: > 100 µM
[11]
  TGI: > 100 µM
[12]
  TGI: > 100 µM
[13]
  TGI: 91.3 µM
[15]
  TGI: > 100 µM
[16]
  TGI: > 100 µM
[19]
  TGI: > 100 µM
[59]
  TGI: > 100 µM
[20]
  TGI: 61.6 µM
[21]
  TGI: > 100 µM
[22]
  TGI: > 100 µM
[24]
  TGI: > 100 µM
[56]
  TGI: > 100 µM
[25]
  TGI: > 100 µM
[26]
  TGI: > 100 µM
[27]
  TGI: > 100 µM
[28]
  TGI: > 100 µM
[58]
  TGI: > 100 µM
[29]
  TGI: > 100 µM
[30]
  TGI: > 100 µM
[31]
  TGI: > 100 µM
[32]
  TGI: 64.5 µM
[34]
  TGI: > 100 µM
[36]
  TGI: > 100 µM
[57]
  TGI: 8.81 µM
[37]
  TGI: 89.7 µM
[39]
  TGI: 94.3 µM
[40]
  TGI: 2.63 µM
[41]
  TGI: > 100 µM
[43]
  TGI: > 100 µM
[44]
  TGI: > 100 µM
[46]
  TGI: > 100 µM
[47]
  TGI: > 100 µM
[48]
  TGI: > 100 µM
[49]
  TGI: > 100 µM
[50]
  TGI: > 100 µM
[51]
  TGI: > 100 µM
[52]
  TGI: > 100 µM

— PubChem BioAssay (NCI)
